Key:
[1] = tested on: α1 65-3,4,5-F3-Phe β2 GABAA receptor; assay: GABA concentration-response, voltage-clamp in oocytes, α1 65-3,4,5-F3-Phe; assay type: cell-based, human
[2] = tested on: α1β2 97-3,4,5-F3-Phe GABAA receptor; assay: GABA concentration-response, voltage-clamp in oocytes, β2 97-3,4,5-F3-Phe; assay type: cell-based, human
[3] = tested on: α1β2 205-3,5-F2-Phe GABAA receptor; assay: GABA concentration-response, voltage-clamp in oocytes, β2 205-3,5-F2-Phe; assay type: cell-based, human
[4] = tested on: α1β2 157-3,5-F2-Phe GABAA receptor; assay: GABA concentration-response, voltage-clamp in oocytes, β2 157-3,5-F2-Phe; assay type: cell-based, human
[5] = tested on: α1β2 157-3,4,5-F3-Phe GABAA receptor; assay: GABA concentration-response, voltage-clamp in oocytes, β2 157-3,4,5-F3-Phe; assay type: cell-based, human
[6] = tested on: α1β2 97-3,5-F2-Phe GABAA receptor; assay: GABA concentration-response, voltage-clamp in oocytes, β2 97-3,5-F2-Phe; assay type: cell-based, human
[7] = tested on: α1β2 157-4-Me-Phe GABAA receptor; assay: GABA concentration-response, voltage-clamp in oocytes, β2 157-4-Me-Phe; assay type: cell-based, human
[8] = tested on: α1β2 205-3,4,5-F3-Phe GABAA receptor; assay: GABA concentration-response, voltage-clamp in oocytes, β2 205-3,4,5-F3-Phe; assay type: cell-based, human
[9] = tested on: α1β2 205-4-F-Phe GABAA receptor; assay: GABA concentration-response, voltage-clamp in oocytes, β2 205-4-F-Phe; assay type: cell-based, human
[10] = target: GABAA receptor α1Phe64 (α1Phe65 by human numbering) to Leu mutant; settings: cited from earlier work
[11] = tested on: GABAA receptors with phenylalanine mutations at β2Tyr157 and β2Tyr205; settings: phenylalanine mutants vs unmutated; ref Amin and Weiss, 1993; cited from earlier work

With `NCCCC(=O)O` [GABA] the “nH (Hill coefficient)” value [1] was 1.5, the “nH (Hill coefficient)” value [2] was 1.9 and the “nH (Hill coefficient)” value [3] was 1.9. The “nH (Hill coefficient)” value [4] was 2.0, the “nH (Hill coefficient)” value [5] was 1.7 and the “nH (Hill coefficient)” value [6] was 1.1. For the same compound, the “nH (Hill coefficient)” value [7] was 0.8, the “nH (Hill coefficient)” value [8] was 2.5 and the “nH (Hill coefficient)” value [9] was 1.9.
For `CN1CCc2cc3c(cc2[C@H]1[C@@H]1OC(=O)c2c1ccc1c2OCO1)OCO3` [bicuculline], the “change of IC50 on mutation” value [10] is given as “increasing by similar amounts”.
For `CCCC(C)C1(CC)C(=O)NC(=O)NC1=O` (centres unmarked) [pentobarbital], the “functional response on activation of the receptors” value [11] is given as “no change in functional response”.

Reference: PMC2649369 (The Journal of neuroscience : the official journal of the …, 2007)
